Publication PMC4503722, “Novel Phenotypic Outcomes Identified for a Public Collection of Approved Drugs from a Publicly Accessible Panel of Assays” (PLoS ONE, 2015)
Counter-ions that a name gives are not always drawn. Like-named read-outs stand apart in the source and are kept apart here. *1 amine or outer side, *2 acyl side, *3 side chain or, on linkers, in order; H or OH if unused. Where a SMILES comes first, the peptide text is derived from it. Bridges are numbered along the chain shown (N, C = ends). Roman numbers before positions name the chains, in order. [ ]: non-standard residue; d: D form. Actinocin(9to1) = Cc1c2oc3c(C)ccc(C(=O)[*:1])c3nc-2c(C(=O)[*:2])c(N)c1=O; NMeV = CN[C@H](C(=O)O)C(C)C; Sar = CNCC(=O)O

Legend:
Assay in all cases: cells
HeLa cells = type: cell-based; details: Homo sapiens, HeLa, S2 Table; HeLa; 20 = no response at highest concentration; read-out: CellCycle G2/M
HCT116 = type: cell-based
NCI-H716 cells = type: cell-based, Human
SW480 = type: cell-based
DLD-1 = type: cell-based
[1] = test system: nuclear β-catenin in C2C12 cells; type: cell-based
INS-1E cells = type: cell-based, rat
[2] = test system: endothelial tube formation in co-cultures of ECFCs and ADSCs treated with VEGF; type: cell-based, human
[3] = test system: HCT116 cells treated with a GSK3β inhibitor; type: cell-based
[4] = Homo sapiens, HCT-116, 72 h, read-out: HCT-116 viab. IC50, Table 2, basal, 72 h, Cell TiterGlo, non-adherent, 20 coded
[5] = Homo sapiens, HCT-116, basal, HCT116, read-out: Basal_Viability ATP HCT116
[6] = Homo sapiens, NCI-H716, read-out: GLP1 sec. EC50
[7] = Homo sapiens, SW480, 72 h, Table 2, 72 h, Cell TiterGlo, non-adherent, 20 coded, read-out: SW480 viab. IC50
[8] = Homo sapiens, SW480, basal, SW480, read-out: Basal_Viability ATP SW480
[9] = Homo sapiens, DLD-1, 72 h, Table 2, 72 h, Cell TiterGlo, non-adherent, 20 coded, read-out: DLD-1 viab. IC50
[10] = Homo sapiens, DLD-1, basal, DLD-1, read-out: Basal_Viability ATP DLD-1
[11] = Rattus norvegicus, INS-1E, read-out: Ins. sec. EC50
[12] = Homo sapiens, HCT-116, read-out: HCT-116 (GSK3β) viab. IC50, Table 2, GSK3β inhibitor LY2090314 20 nM, 72 h, Cell TiterGlo, 20 coded
[13] = Homo sapiens, HCT-116, basal, read-out: Basal_Viability ATP HCT116
[14] = Homo sapiens, IC50 / EC50, NCI-H716, read-out: GLP 1 Secretion
[15] = Homo sapiens, SW480, basal, read-out: Basal_Viability ATP SW480
[16] = Homo sapiens, DLD-1, basal, read-out: Basal_Viability ATP DLD-1
[17] = Mus musculus, C2C12, IC50 / EC50, C2C12 beta-catenin translocation, read-out: Wnt Pathway
[18] = Rattus norvegicus, IC50 / EC50, INS-1E, read-out: Insulin Secretion
[19] = Homo sapiens, IC50 / EC50, endothelial tube area, ADSC/ECFC co-culture, read-out: Anti-Angiogenesis
[20] = Homo sapiens, HCT-116, GSK3b inhibitor pretreated, read-out: GSK3b inh pretreated_Viability ATP HCT116
[21] = Homo sapiens, NCI-H716, read-out: GLP 1 Secretion
[22] = Mus musculus, C2C12, S2 Table, module primary assay, 20 / 20.1 codes per legend, read-out: Wnt Pathway
[23] = Rattus norvegicus, INS-1E, read-out: Insulin Secretion
[24] = Homo sapiens, read-out: Anti-Angiogenesis
[25] = Homo sapiens, HCT-116, HCT116 pretreated with GSK3b inhibitor, read-out: GSK3b inh pretreated_Viability ATP HCT116

Work on `Cc1nc(Nc2ncc(C(=O)Nc3c(C)cccc3Cl)s2)cc(N2CCN(CCO)CC2)n1` [dasatinib, reference compound] yielded an EC50 (HeLa cells) of over 10 µM, an IC50 (HCT116; [4]) of 11.9 µM and an IC50 (HCT116; [5]) of 11.9 µM. The EC50 (NCI-H716 cells; [6]) was over 10 µM, the IC50 (SW480; [7]) was 7 µM and the IC50 (SW480; [8]) was 7.02 µM. It also gave an IC50 (DLD-1; [9]) of 3.5 µM, an IC50 (DLD-1; [10]) of 3.52 µM and an EC50 ([1]; Mus musculus, C2C12, read-out: Wnt Pathway) of 0.0067 µM. It also gave an EC50 ([1]; Mus musculus, C2C12, read-out: Wnt pot. EC50) of 0.007 µM, an EC50 (INS-1E cells; [11]) of over 10 µM and an IC50 ([2]; Homo sapiens, read-out: Anti-Angio IC50) of over 10 µM. The IC50 [3, 12] was over 20 µM.
For `NC(=O)C1(N2CCCCC2)CCN(CCCN2c3ccccc3CCc3ccc(Cl)cc32)CC1` [Clocapramine], the IC50 (HCT116; [13]) was 3.41 µM, the EC50 (NCI-H716 cells; [14]) was 18.3 µM and the IC50 (SW480; [15]) was 3.69 µM. It also gave an IC50 (DLD-1; [16]) of 5.35 µM, an EC50 [1, 17] of over 20 µM and an EC50 (INS-1E cells; [18]) of 10.1 µM. For the same compound, the IC50 [2, 19] was 3.4 µM and the IC50 [3, 20] was 3.64 µM.
In the case of `C[C@@H]1C[C@H]2[C@@H]3CCC4=CC(=O)C=C[C@]4(C)[C@@]3(Cl)[C@@H](O)C[C@]2(C)[C@@]1(OC(=O)c1ccco1)C(=O)CCl` [Mometasone furoate], the EC50 (HeLa cells) is reported as over 10 µM, the IC50 (HCT116; [5]) is reported as 14.5 µM and the EC50 (NCI-H716 cells; [21]) is reported as over 10 µM. The IC50 (SW480; [8]) was 4.89 µM, the IC50 (DLD-1; [10]) was 8.42 µM and the EC50 [1, 22] was over 10 µM. It also gave an EC50 (INS-1E cells; [23]) of over 10 µM, an IC50 [2, 24] of 4.99 µM and an IC50 [3, 25] of over 20 µM.
In the case of `O=C(O)c1ccccc1-c1c2cc(I)c(=O)c(I)c-2oc2c(I)c(O)c(I)cc12` [Erythrosin b], the IC50 (HCT116; basal, read-out: Basal_Viability ATP HCT116) is reported as over 20 µM, the EC50 (NCI-H716 cells; IC50 / EC50, NCI-H716, read-out: GLP 1 Secretion) is reported as 2.93 µM and the IC50 (SW480; basal, read-out: Basal_Viability ATP SW480) is reported as over 20 µM. It also gave an IC50 (DLD-1; basal, read-out: Basal_Viability ATP DLD-1) of over 20 µM, an EC50 ([1]; IC50 / EC50, C2C12 beta-catenin translocation, read-out: Wnt Pathway) of over 10 µM and an EC50 (INS-1E cells; IC50 / EC50, INS-1E, read-out: Insulin Secretion) of over 10 µM. For the same compound, the IC50 ([2]; IC50 / EC50, endothelial tube area, ADSC/ECFC co-culture, read-out: Anti-Angiogenesis) was over 10 µM and the IC50 ([3]; GSK3b inhibitor pretreated, read-out: GSK3b inh pretreated_Viability ATP HCT116) was over 20 µM.
`Oc1ccc2[nH]cc(CCCCN3CC=C(c4ccccc4)CC3)c2c1` [Roxindole hydrochloride] showed an IC50 (HCT116; read-out: Basal_Viability ATP HCT116) of 2.5 µM, an EC50 (NCI-H716 cells; read-out: GLP 1 Secretion) of over 10 µM and an IC50 (SW480; read-out: Basal_Viability ATP SW480) of 2.47 µM. It also gave an IC50 (DLD-1; read-out: Basal_Viability ATP DLD-1) of 4.54 µM, an EC50 ([1]; read-out: Wnt Pathway) of over 10 µM and an EC50 (INS-1E cells; read-out: Insulin Secretion) of over 10 µM. For the same compound, the IC50 ([2]; read-out: Anti-Angiogenesis) was 4.04 µM and the IC50 ([3]; read-out: GSK3b inh pretreated_Viability ATP HCT116) was 3.32 µM.
For `Cc1c2oc3c(C)ccc(C(=O)N[C@@H]4C(=O)N[C@H](C(C)C)C(=O)N5CCC[C@H]5C(=O)N(C)CC(=O)N(C)[C@@H](C(C)C)C(=O)O[C@@H]4C)c3nc-2c(C(=O)N[C@@H]2C(=O)N[C@H](C(C)C)C(=O)N3CCC[C@H]3C(=O)N(C)CC(=O)N(C)[C@@H](C(C)C)C(=O)O[C@@H]2C)c(N)c1=O` [Dactinomycin] (I: T[dV]P[Sar][NMeV] / II: T[dV]P[Sar][NMeV]; ester I:1-I:C, II:1-II:C; linker I:N-II:N via Actinocin(9to1)), the IC50 (HCT116; Homo sapiens, HCT-116, read-out: Basal_Viability ATP HCT116) was 12.6 µM, the EC50 (NCI-H716 cells; [14]) was over 10 µM and the IC50 (SW480; Homo sapiens, SW480, read-out: Basal_Viability ATP SW480) was 0.0667 µM. It also gave an IC50 (DLD-1; Homo sapiens, DLD-1, read-out: Basal_Viability ATP DLD-1) of 0.0667 µM, an EC50 ([1]; Mus musculus, IC50 / EC50, C2C12 beta-catenin translocation, read-out: Wnt Pathway) of 0.0015 µM and an EC50 (INS-1E cells; [18]) of over 10 µM. It also gave an IC50 [2, 19] of 0.001 µM and an IC50 [3, 20] of over 20 µM.
With `CC1=C(C(=O)OC(C)C)C(c2cccc([N+](=O)[O-])c2)C(C(=O)OC2CN(C(c3ccccc3)c3ccccc3)C2)=C(N)N1` (stereo not drawn) [Azelnidipine] the IC50 (HCT116; [13]) was 3.69 µM, the EC50 (NCI-H716 cells; [14]) was 1.23 µM and the IC50 (SW480; [15]) was 3.84 µM. It also gave an IC50 (DLD-1; [16]) of 5.1 µM, an EC50 [1, 17] of over 10 µM and an EC50 (INS-1E cells; [18]) of over 10 µM. It also gave an IC50 [2, 19] of 3.58 µM and an IC50 [3, 20] of 5.5 µM.
In the case of `CCC1=C(C)CN(C(=O)NCCc2ccc(S(=O)(=O)NC(=O)N[C@H]3CC[C@H](C)CC3)cc2)C1=O` [glimepiride, reference compound], the IC50 (HCT116; [4]) is reported as over 20 µM, the EC50 (NCI-H716 cells; [6]) is reported as over 10 µM and the IC50 (SW480; [7]) is reported as over 20 µM. It also gave an IC50 (DLD-1; [9]) of over 20 µM, an EC50 ([1]; Mus musculus, C2C12, Table 2, C2C12, […], 20 / 20.1 coded, read-out: Wnt pot. EC50) of over 10 µM and an EC50 (INS-1E cells; [11]) of 0.004 µM. For the same compound, the EC50 (INS-1E cells; [18]) was 0.00406 µM, the EC50 (INS-1E cells; Rattus norvegicus, INS-1E, 5 mM glucose, read-out: insulin secretion EC50) was 0.0041 µM and the IC50 ([2]; Homo sapiens, Table 2, primary assay tube area, 20 = no response in concentration-response, 20.1 = inactive in single concentration testing, read-out: Anti-Angio IC50) was over 10 µM. The IC50 [3, 12] was over 20 µM.
With `CN(C)/N=N/c1[nH]cnc1C(N)=O` [dacarbazine] the EC50 (HeLa cells) was over 10 µM, the IC50 (HCT116; [5]) was over 20 µM and the EC50 (NCI-H716 cells; [21]) was over 10 µM. It also gave an IC50 (SW480; [8]) of over 20 µM, an IC50 (DLD-1; [10]) of over 20 µM and an EC50 [1, 22] of over 10 µM. It also gave an EC50 (INS-1E cells; [23]) of over 10 µM, an IC50 [2, 24] of 4.59 µM and an IC50 [3, 25] of over 20 µM.
